For this assay, the system named is MMP-1. Put plainly: Test 2: Analysis of inhibition of MMP-1 expression (MMP-1 ELISA, UVB-irradiated HS68 cells). It is filed as cell-based, human. The note with it: UVB 30 mJ/cm2, compositions 1% mass concentration (RA 5 μM), 48 h, unirradiated control = 100, UV control = 194. As to the method: Test 2: Analysis of Inhibition of MMP-1 Expression
Human fibrocytes (HS68 cells, purchased from ATCC (Rockville, Md., USA)) were placed in a well plate at a density of 7.5×10^4 cells/well, and incubated in DMEM containing 10% FBS for 24 h, and then washed with PBS (phosphate buffer), followed by the addition of 0.5 ml of PBS therein, the resultant incubated cells were irradiated with ultraviolet rays (UVB30 mJ/cm2) to induce the expression of MMP-1. After the replacement with serum-free DMEM, the resultant product was treated with the compositions (having a mass concentration of 1%) of the examples and the contrast examples. The amount of supernatant obtained after 48 h incubation was determined using an MMP-1 ELISA kit. The human dermal fibroblasts HS68 were treated with ultraviolet rays to increase the expression of MMP-1, and then the resultant HS68 cells were treated with each sample to study whether the expression of MMP-1 was decreased. In the above, retinoic acid (RA, 5 μM, which is known to inhibit the expression of MMP-1) was used as a positive control group.

With `CC1=C(/C=C/C(C)=C/C=C/C(C)=C/C(=O)O)C(C)(C)CCC1` [RA, retinoic acid], the “Effect on inhibition of MMP-1 expression: proportions relative to the control group (%)” value was 118%.

(Values after patent US20200297617A1, “COMPOSITION FOR SKIN EXTERNAL USE FOR REDUCING WRINKLE AND COSMETIC PRODUCT” (Guangdong Bawei Biotechnology Co., Ltd., priority 2019, published 2020).)
